# Test results from patent US20110008465A1, “SESQUITERPENE FORMULATIONS, KITS AND METHODS OF USE THEREOF” (priority 2007, published 2011).
# Experiments:
# [1] = test system: U-251 (human glioblastoma); experiment: Chou and Talalay combination assay with beta-caryophyllene; type: cell-based; conditions: anticancer drug in combination with beta-caryophyllene; Chou and Talalay CI; 48 h
# Procedure: (§1) Each solution was prepared fresh and use within 1 hour after preparation.
# (§2) Cells were then harvested using trypsine-EDTA. Cells were counted using a hemocytometer and resuspended in DMEM+10% FBS medium.
# (§3) Proliferation assay: Increasing concentrations of the anticancer agents and/or beta-caryophyllene were added to 96-well plate (100 μL per well). The final concentration of solvent in the culture medium was maintained below 0.5% (volume/volume) to avoid solvent toxicity.
# (§4) The cells were incubated for 48 h at 37° C. and 5% CO2. Cytotoxicity was assessed using the resazurin reduction test (O'Brien et al., 2000). Fluorescence was measured on an automated 96-well Fluoroskan Ascent FI™ plate reader (Labsystems) using excitation and emission wavelengths of 530 nm and 590 nm, respectively. Resazurin was then removed.
# (§5) Microplates were frozen at −20° C. overnight. Plates were thawed, a volume of 100 μl of 0.01% SDS in water was added to the wells, the plates were shaken at room temperature for 3 hours and then frozen once more at −20° C. overnight. […] Plates were shaken in the dark (at room temperature) for at least 2 hours, and fluorescence was measured on an automated 96-well Fluoroskan Ascent FI™ plate reader (Labsystems) using excitation and emission wavelengths of 360 nm and 460 nm, respectively.
# (§6) Results were analyzed using the Chou and Talalay method (9) and may be interpreted as follow: Cl>1 represents an antagonist effect of beta-caryophyllene with the corresponding anticancer agent; Cl=1 represents an additive effect of beta-caryophyllene with the corresponding anticancer agent; Cl<1 represents a potentiating effect of beta-caryophyllene with the corresponding anticancer agent.
# B16 (murine melanoma) = experiment: as above; type: cell-based; conditions: anticancer drug in combination with beta-caryophyllene; Chou and Talalay CI; 48 h
# Procedure: as §1, §2, §3, §4, §5, §6
# MEL-2 (human melanoma) = experiment: as above; type: cell-based; conditions: anticancer drug in combination with beta-caryophyllene; Chou and Talalay CI; 48 h
# Procedure: as §1, §2, §3, §4, §5, §6
# [2] = test system: GL-261 (murine glioblastoma); experiment: as above; type: cell-based; conditions: anticancer drug in combination with beta-caryophyllene; Chou and Talalay CI; 48 h
# Procedure: as §1, §2, §3, §4, §5, §6
# PC-3 (prostate cancer) = experiment: as above; type: cell-based, human; conditions: anticancer drug in combination with beta-caryophyllene; Chou and Talalay CI; 48 h
# Procedure: as §1, §2, §3, §4, §5
# [3] = test system: MDA-MB-231 (breast cancer); experiment: as above; type: cell-based, human; conditions: anticancer drug in combination with beta-caryophyllene; Chou and Talalay CI; 48 h
# Procedure: as §1, §2, §3, §4, §5, §6
# A-549 (lung cancer) = experiment: as above; type: cell-based, human; conditions: anticancer drug in combination with beta-caryophyllene; Chou and Talalay CI; 48 h
# Procedure: as §1, §2, §3, §4, §5, §6
# PA-1 (ovary cancer) = experiment: as above; type: cell-based, human; conditions: anticancer drug in combination with beta-caryophyllene; Chou and Talalay CI; 48 h
# Procedure: as §1, §2, §3, §4, §5, §6
# MCF-7 (breast cancer) = experiment: as above; type: cell-based, human; conditions: anticancer drug in combination with beta-caryophyllene; Chou and Talalay CI; 48 h
# Procedure: as §1, §2, §3, §4, §5, §6
# DLD-1 (colon cancer) = experiment: as above; type: cell-based, human; conditions: anticancer drug in combination with beta-caryophyllene; Chou and Talalay CI; 48 h
# Procedure: as §1, §2, §3, §4, §5, §6
# tumor cell lines = experiment: Comparative potentiating effect of beta-caryophyllene and Tesmilifene (DPPE) combined with 5 antitumor classes; type: cell-based
# Procedure: as §1, §2, §3, §4, §5, §6
compound,measurement,setting,value
"O=c1[nH]cc(F)c(=O)[nH]1 [5-fluorouracil, 5-Fluorouracil]",Potentiating activity U-251,[1],(1) (Very High: potentiating or additive activity to IC20 and CI < 0.6 to IC50)
same,Potentiating activity B16,B16 (murine melanoma),(1) (Very High: potentiating or additive activity to IC20 and CI < 0.6 to IC50)
same,Potentiating activity MEL-2,MEL-2 (human melanoma),(1) (Very High: potentiating or additive activity to IC20 and CI < 0.6 to IC50)
same,Potentiating activity GL-261,[2],(3) (Moderate: 0.5 < CI < 0.8 to IC50)
same,Potentiating activity PC-3,PC-3 (prostate cancer),(2) (High: CI < 0.5 to IC50)
same,Potentiating activity MDA,[3],(3) (Moderate: 0.5 < CI < 0.8 at IC50)
same,Potentiating activity A-549,A-549 (lung cancer),(6) (Antagonist effect: CI > 1)
same,Potentiating activity PA-1,PA-1 (ovary cancer),(2) (High: CI < 0.5 to IC50)
same,Potentiating activity MCF-7,MCF-7 (breast cancer),(1) (Very High: CI equal or below 1 at IC20 and Cl below 0.6 to IC50)
same,Potentiating activity DLD-1,DLD-1 (colon cancer),(3) (Moderate: 0.5 < CI < 0.8 at IC50)
"O=C(O)CCCc1ccc(N(CCCl)CCCl)cc1 [Chlorambucil, chlorambucil]",Potentiating activity U-251,[1],(2) (High: CI < 0.5 to IC50)
same,Potentiating activity B16,B16 (murine melanoma),(1) (Very High: potentiating or additive activity to IC20 and CI < 0.6 to IC50)
same,Potentiating activity MEL-2,MEL-2 (human melanoma),(1) (Very High: potentiating or additive activity to IC20 and CI < 0.6 to IC50)
same,Potentiating activity GL-261,[2],(6) (Antagonist effect: CI > 1)
same,Potentiating activity MDA,[3],(1) (Very High: CI equal or below 1 at IC20 and Cl below 0.6 to IC50)
same,Potentiating activity A-549,A-549 (lung cancer),(3) (Moderate: 0.5 < CI < 0.8 at IC50)
same,Potentiating activity PA-1,PA-1 (ovary cancer),(3) (Moderate: 0.5 < CI < 0.8 to IC50)
same,Potentiating activity MCF-7,MCF-7 (breast cancer),(1) (Very High: CI equal or below 1 at IC20 and Cl below 0.6 to IC50)
same,Potentiating activity DLD-1,DLD-1 (colon cancer),(3) (Moderate: 0.5 < CI < 0.8 at IC50)
vinblastine sulfate salt,Potentiating activity U-251,[1],(1) (Very High: potentiating or additive activity to IC20 and CI < 0.6 to IC50)
same,Potentiating activity B16,B16 (murine melanoma),(1) (Very High: potentiating or additive activity to IC20 and CI < 0.6 to IC50)
same,Potentiating activity MEL-2,MEL-2 (human melanoma),(1) (Very High: potentiating or additive activity to IC20 and CI < 0.6 to IC50)
same,Potentiating activity GL-261,[2],(1) (Very High: potentiating or additive activity to IC20 and CI < 0.6 to IC50)
same,Potentiating activity PC-3,PC-3 (prostate cancer),(3) (Moderate: 0.5 < CI < 0.8 to IC50)
same,Potentiating activity MDA,[3],(1) (Very High: CI equal or below 1 at IC20 and Cl below 0.6 to IC50)
same,Potentiating activity A-549,A-549 (lung cancer),(1) (Very High: CI equal or below 1 at IC20 and Cl below 0.6 to IC50)
same,Potentiating activity PA-1,PA-1 (ovary cancer),(1) (Very High: potentiating or additive activity to IC20 and CI < 0.6 to IC50)
same,Potentiating activity MCF-7,MCF-7 (breast cancer),(1) (Very High: CI equal or below 1 at IC20 and Cl below 0.6 to IC50)
same,Potentiating activity DLD-1,DLD-1 (colon cancer),(1) (Very High: CI equal or below 1 at IC20 and Cl below 0.6 to IC50)
CN(Cc1cnc2nc(N)nc(N)c2n1)c1ccc(C(=O)N[C@@H](CCC(=O)O)C(=O)O)cc1 [Methotrexate],Potentiating activity U-251,[1],(2) (High: CI < 0.5 to IC50)
same,Potentiating activity B16,B16 (murine melanoma),(6) (Antagonist effect: CI > 1)
same,Potentiating activity MEL-2,MEL-2 (human melanoma),(1) (Very High: potentiating or additive activity to IC20 and CI < 0.6 to IC50)
same,Potentiating activity GL-261,[2],(6) (Antagonist effect: CI > 1)
same,Potentiating activity PC-3,PC-3 (prostate cancer),(6) (Antagonist effect: CI > 1)
same,Potentiating activity MDA,[3],(6) (Antagonist effect: CI > 1)
same,Potentiating activity A-549,A-549 (lung cancer),(4) (Weak: 0.8 < CI < 1 at IC50)
same,Potentiating activity PA-1,PA-1 (ovary cancer),(1) (Very High: potentiating or additive activity to IC20 and CI < 0.6 to IC50)
same,Potentiating activity MCF-7,MCF-7 (breast cancer),(2) (High: CI below 0.5 at IC50)
same,Potentiating activity DLD-1,DLD-1 (colon cancer),(4) (Weak: 0.8 < CI < 1 at IC50)
"CCN(CC)CCOc1ccc(Cc2ccccc2)cc1 [DPPE, Tesmilifene]",Alkylating agents %,tumor cell lines; class (1) Very High,25%
same,Alkylating agents Total (60),tumor cell lines; class (1) Very High,15
same,Antimitotic agents %,tumor cell lines; class (1) Very High,25%
same,Antimitotic agents Total (40),tumor cell lines; class (1) Very High,10
same,RNA/DNA antimetabolites %,tumor cell lines; class (1) Very High,30%
same,RNA/DNA antimetabolites Total (20),tumor cell lines; class (1) Very High,6
same,Topoisomerase II inhibitors %,tumor cell lines; class (1) Very High,18%
same,Topoisomerase II inhibitors Total (40),tumor cell lines; class (1) Very High,7
same,kinase inhibitors %,tumor cell lines; class (1) Very High,30%
same,kinase inhibitors Total (20),tumor cell lines; class (1) Very High,6
same,Alkylating agents %,tumor cell lines; class (2) High,20%
same,Alkylating agents Total (60),tumor cell lines; class (2) High,12
same,Antimitotic agents %,tumor cell lines; class (2) High,20%
same,Antimitotic agents Total (40),tumor cell lines; class (2) High,8
same,RNA/DNA antimetabolites %,tumor cell lines; class (2) High,15%
same,RNA/DNA antimetabolites Total (20),tumor cell lines; class (2) High,3
same,Topoisomerase II inhibitors %,tumor cell lines; class (2) High,13%
same,Topoisomerase II inhibitors Total (40),tumor cell lines; class (2) High,5
same,kinase inhibitors %,tumor cell lines; class (2) High,25%
same,kinase inhibitors Total (20),tumor cell lines; class (2) High,5
same,Alkylating agents %,tumor cell lines; class (3) Moderate,23%
same,Alkylating agents Total (60),tumor cell lines; class (3) Moderate,14
same,Antimitotic agents %,tumor cell lines; class (3) Moderate,30%
same,Antimitotic agents Total (40),tumor cell lines; class (3) Moderate,12
same,RNA/DNA antimetabolites %,tumor cell lines; class (3) Moderate,15%
same,RNA/DNA antimetabolites Total (20),tumor cell lines; class (3) Moderate,3
same,Topoisomerase II inhibitors %,tumor cell lines; class (3) Moderate,30%
same,Topoisomerase II inhibitors Total (40),tumor cell lines; class (3) Moderate,12
same,kinase inhibitors %,tumor cell lines; class (3) Moderate,45%
same,kinase inhibitors Total (20),tumor cell lines; class (3) Moderate,9
same,Alkylating agents %,tumor cell lines; class (4) Weak,10%
same,Alkylating agents Total (60),tumor cell lines; class (4) Weak,6
same,Antimitotic agents %,tumor cell lines; class (4) Weak,15%
same,Antimitotic agents Total (40),tumor cell lines; class (4) Weak,6
same,RNA/DNA antimetabolites %,tumor cell lines; class (4) Weak,10%
same,RNA/DNA antimetabolites Total (20),tumor cell lines; class (4) Weak,2
same,Topoisomerase II inhibitors %,tumor cell lines; class (4) Weak,10%
same,Topoisomerase II inhibitors Total (40),tumor cell lines; class (4) Weak,4
same,kinase inhibitors %,tumor cell lines; class (4) Weak,0%
same,kinase inhibitors Total (20),tumor cell lines; class (4) Weak,0
same,Alkylating agents %,tumor cell lines; class (5) Additive effect,5%
same,Alkylating agents Total (60),tumor cell lines; class (5) Additive effect,3
same,Antimitotic agents %,tumor cell lines; class (5) Additive effect,0%
same,Antimitotic agents Total (40),tumor cell lines; class (5) Additive effect,0
same,RNA/DNA antimetabolites %,tumor cell lines; class (5) Additive effect,0%
same,RNA/DNA antimetabolites Total (20),tumor cell lines; class (5) Additive effect,0
same,Topoisomerase II inhibitors %,tumor cell lines; class (5) Additive effect,5%
same,Topoisomerase II inhibitors Total (40),tumor cell lines; class (5) Additive effect,2
same,kinase inhibitors %,tumor cell lines; class (5) Additive effect,0%
same,kinase inhibitors Total (20),tumor cell lines; class (5) Additive effect,0
same,Alkylating agents %,tumor cell lines; class (6) Antagonist effect,17%
same,Alkylating agents Total (60),tumor cell lines; class (6) Antagonist effect,10
same,Antimitotic agents %,tumor cell lines; class (6) Antagonist effect,10%
same,Antimitotic agents Total (40),tumor cell lines; class (6) Antagonist effect,4
same,RNA/DNA antimetabolites %,tumor cell lines; class (6) Antagonist effect,30%
same,RNA/DNA antimetabolites Total (20),tumor cell lines; class (6) Antagonist effect,6
same,Topoisomerase II inhibitors %,tumor cell lines; class (6) Antagonist effect,25%
same,Topoisomerase II inhibitors Total (40),tumor cell lines; class (6) Antagonist effect,10
same,kinase inhibitors %,tumor cell lines; class (6) Antagonist effect,0%
same,kinase inhibitors Total (20),tumor cell lines; class (6) Antagonist effect,0
same,drugs exhibiting a potentiating effect when combined,tumor cell lines; drugs tested at their IC50 values,81%
